# Assay results as given in US8192962B2, “Processes for detecting toxic substances” (Daikin Industries, Ltd., priority 2001, dated 2012).
# System: DNA repair protein genes
# Assay: DNA chip mRNA expression in yeast, DNA repair protein genes (Table 3)
# Format: cell-based, Saccharomyces cerevisiae S288C
# Details: incubated two hours, concentrations as in the 1st table
# Method in brief: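 In this screen, yeast in logarithmic growth are challenged for two hours with a toxic substance at a non-lethal inhibitory concentration. Their mRNA, converted to Cy3- or Cy5-labeled cDNA, hybridizes at 65° C. to a chip spanning every yeast gene, and expression is expressed as a ratio to untreated cells.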
structure (smiles),measurement,setting,value
"CCCCCCCCCCCCOS(=O)(=O)[O-].[Na+] [(18), sodium lauryl sulfate]",The level of expressed mRNA in the presence of chemical substance/The level of expressed mRNA in the absence of chemical substance,yeast gene YAL015C,1.2
same,The level of expressed mRNA in the presence of chemical substance/The level of expressed mRNA in the absence of chemical substance,yeast gene YAR007C,1.0
same,The level of expressed mRNA in the presence of chemical substance/The level of expressed mRNA in the absence of chemical substance,yeast gene YBL019W,1.1
same,The level of expressed mRNA in the presence of chemical substance/The level of expressed mRNA in the absence of chemical substance,yeast gene YBR073W,0.8
same,The level of expressed mRNA in the presence of chemical substance/The level of expressed mRNA in the absence of chemical substance,yeast gene YBR272C,1.2
same,The level of expressed mRNA in the presence of chemical substance/The level of expressed mRNA in the absence of chemical substance,yeast gene YCR014C,0.9
same,The level of expressed mRNA in the presence of chemical substance/The level of expressed mRNA in the absence of chemical substance,yeast gene YDL017W,1.0
same,The level of expressed mRNA in the presence of chemical substance/The level of expressed mRNA in the absence of chemical substance,yeast gene YDL059C,0.9
same,The level of expressed mRNA in the presence of chemical substance/The level of expressed mRNA in the absence of chemical substance,yeast gene YDL200C,1.6
same,The level of expressed mRNA in the presence of chemical substance/The level of expressed mRNA in the absence of chemical substance,yeast gene YDR054C,1.4
same,The level of expressed mRNA in the presence of chemical substance/The level of expressed mRNA in the absence of chemical substance,yeast gene YDR369C,0.7
same,The level of expressed mRNA in the presence of chemical substance/The level of expressed mRNA in the absence of chemical substance,yeast gene YEL019C,0.9
same,The level of expressed mRNA in the presence of chemical substance/The level of expressed mRNA in the absence of chemical substance,yeast gene YEL037C,0.8
same,The level of expressed mRNA in the presence of chemical substance/The level of expressed mRNA in the absence of chemical substance,yeast gene YER162C,0.9
same,The level of expressed mRNA in the presence of chemical substance/The level of expressed mRNA in the absence of chemical substance,yeast gene YFL014W,8.8
same,The level of expressed mRNA in the presence of chemical substance/The level of expressed mRNA in the absence of chemical substance,yeast gene YGL058W,0.7
same,The level of expressed mRNA in the presence of chemical substance/The level of expressed mRNA in the absence of chemical substance,yeast gene YGL091C,1.8
same,The level of expressed mRNA in the presence of chemical substance/The level of expressed mRNA in the absence of chemical substance,yeast gene YGL127C,1.2
same,The level of expressed mRNA in the presence of chemical substance/The level of expressed mRNA in the absence of chemical substance,yeast gene YGL163C,0.8
same,The level of expressed mRNA in the presence of chemical substance/The level of expressed mRNA in the absence of chemical substance,yeast gene YGL249W,1.0
same,The level of expressed mRNA in the presence of chemical substance/The level of expressed mRNA in the absence of chemical substance,yeast gene YGR180C,1.9
same,The level of expressed mRNA in the presence of chemical substance/The level of expressed mRNA in the absence of chemical substance,yeast gene YGR231C,1.5
same,The level of expressed mRNA in the presence of chemical substance/The level of expressed mRNA in the absence of chemical substance,yeast gene YGR258C,0.9
same,The level of expressed mRNA in the presence of chemical substance/The level of expressed mRNA in the absence of chemical substance,yeast gene YHR164C,1.0
same,The level of expressed mRNA in the presence of chemical substance/The level of expressed mRNA in the absence of chemical substance,yeast gene YIL036W,1.3
same,The level of expressed mRNA in the presence of chemical substance/The level of expressed mRNA in the absence of chemical substance,yeast gene YIL072W,1.1
same,The level of expressed mRNA in the presence of chemical substance/The level of expressed mRNA in the absence of chemical substance,yeast gene YIL143C,0.9
same,The level of expressed mRNA in the presence of chemical substance/The level of expressed mRNA in the absence of chemical substance,yeast gene YIL153W,0.7
same,The level of expressed mRNA in the presence of chemical substance/The level of expressed mRNA in the absence of chemical substance,yeast gene YIR002C,1.2
same,The level of expressed mRNA in the presence of chemical substance/The level of expressed mRNA in the absence of chemical substance,yeast gene YJL026W,2.1
same,The level of expressed mRNA in the presence of chemical substance/The level of expressed mRNA in the absence of chemical substance,yeast gene YJR046W,0.7
same,The level of expressed mRNA in the presence of chemical substance/The level of expressed mRNA in the absence of chemical substance,yeast gene YJR052W,1.3
same,The level of expressed mRNA in the presence of chemical substance/The level of expressed mRNA in the absence of chemical substance,yeast gene YKL145W,1.5
same,The level of expressed mRNA in the presence of chemical substance/The level of expressed mRNA in the absence of chemical substance,yeast gene YLR103C,1.4
same,The level of expressed mRNA in the presence of chemical substance/The level of expressed mRNA in the absence of chemical substance,yeast gene YLR233C,1.2
same,The level of expressed mRNA in the presence of chemical substance/The level of expressed mRNA in the absence of chemical substance,yeast gene YLR288C,1.3
same,The level of expressed mRNA in the presence of chemical substance/The level of expressed mRNA in the absence of chemical substance,yeast gene YML032C,1.0
same,The level of expressed mRNA in the presence of chemical substance/The level of expressed mRNA in the absence of chemical substance,yeast gene YML058W,1.5
same,The level of expressed mRNA in the presence of chemical substance/The level of expressed mRNA in the absence of chemical substance,yeast gene YMR035W,2.4
same,The level of expressed mRNA in the presence of chemical substance/The level of expressed mRNA in the absence of chemical substance,yeast gene YMR072W,1.9
same,The level of expressed mRNA in the presence of chemical substance/The level of expressed mRNA in the absence of chemical substance,yeast gene YMR096W,1.0
same,The level of expressed mRNA in the presence of chemical substance/The level of expressed mRNA in the absence of chemical substance,yeast gene YMR284W,1.3
same,The level of expressed mRNA in the presence of chemical substance/The level of expressed mRNA in the absence of chemical substance,yeast gene YNL213C,1.2
same,The level of expressed mRNA in the presence of chemical substance/The level of expressed mRNA in the absence of chemical substance,yeast gene YNL250W,1.0
same,The level of expressed mRNA in the presence of chemical substance/The level of expressed mRNA in the absence of chemical substance,yeast gene YNL261W,1.0
same,The level of expressed mRNA in the presence of chemical substance/The level of expressed mRNA in the absence of chemical substance,yeast gene YNL312W,1.1
same,The level of expressed mRNA in the presence of chemical substance/The level of expressed mRNA in the absence of chemical substance,yeast gene YOL043C,1.0
same,The level of expressed mRNA in the presence of chemical substance/The level of expressed mRNA in the absence of chemical substance,yeast gene YOR005C,1.0
same,The level of expressed mRNA in the presence of chemical substance/The level of expressed mRNA in the absence of chemical substance,yeast gene YOR386W,1.7
same,The level of expressed mRNA in the presence of chemical substance/The level of expressed mRNA in the absence of chemical substance,yeast gene YPL022W,0.9
same,The level of expressed mRNA in the presence of chemical substance/The level of expressed mRNA in the absence of chemical substance,yeast gene YPL164C,1.0
same,The level of expressed mRNA in the presence of chemical substance/The level of expressed mRNA in the absence of chemical substance,yeast gene YPL194W,0.8
same,The level of expressed mRNA in the presence of chemical substance/The level of expressed mRNA in the absence of chemical substance,yeast gene YPR025C,1.5
